Measured values taken from patent US20060122101A1, “Drug for preventing, regulating or treating adhesion” (priority 2003, published 2006).

How the values were obtained:
[1] = target: human leukocyte elastase (Homo sapiens, UniProt P08246); conditions: cited from earlier work
[2] = cited from earlier work
[3] = target: T1, chymase (Homo sapiens, UniProt P23946); assay: Chymase activity in blood vessel tissue of the living body after use during operation; assay type: in vivo; conditions: 10 μM during the operation; for 4 weeks
T1 construct: the chymase activity in the blood vessel tissue of the living body; from tissue; host or cells: blood vessel tissue of the living body
T1 sequence (P23946 22-247): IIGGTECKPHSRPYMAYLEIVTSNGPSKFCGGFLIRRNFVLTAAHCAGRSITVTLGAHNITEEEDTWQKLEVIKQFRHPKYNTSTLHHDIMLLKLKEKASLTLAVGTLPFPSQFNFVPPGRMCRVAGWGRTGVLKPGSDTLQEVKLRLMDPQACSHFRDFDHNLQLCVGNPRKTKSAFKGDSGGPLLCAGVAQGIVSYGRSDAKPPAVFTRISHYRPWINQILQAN
Experimental: The medicament of the present invention allows at least one protease inhibitor to be administered in a substantially sufficient amount to permit epithelialization in the site of adhesion formation. […] The effective administration amount of chymase inhibitor (Suc-Val-Pro-L-Phe^P(OPh)2) can be selected in the range of 0.0001 to 100 mg per 1 kg of adult body weight, per one day. For example, it can be administered intravenously by an amount selected in the range from 0.0001 to 100 mg, preferably from 0.01 to 1 mg, and orally by an amount selected in the range from 0.1 to 100 mg, preferably from 0.1 to 10 mg. Furthermore, it can be intravenously applied by an amount in the range from 0.0001 to 1000 mg, preferably from 0.1 to 100 mg.

[4] = system: chymotrypsin and chymotrypsin-like enzymes; conditions: cited from earlier work
[5] = system: Cardiac muscle adhesion models; assay: Prevention of adhesion by oral administration in hamster cardiac muscle adhesion model; assay type: in vivo, Syrian hamsters; conditions: 10 mg/kg orally once a day
Experimental: Syrian hamsters (SLC Co., Ltd.), 6 weeks of age (weighing 85-90 g), were subject to abdominal middle incision to scrape their hearts. Cardiac muscle adhesion models were prepared. Suc-Val-Pro-Phe^P(OPh)2 (10 mg/kg) (eight cases) or placebo (eight cases) was forcibly orally administered using a canal once a day from the 3rd day before the model preparation to the 14th day after the model preparation. The adhesion levels at the 14th day after the model preparation were compared to study. Adhesion scores are as follows. Student-t test was used to test a significant difference in adhesion core.
Adhesion level 0: A heart is easily taken out, and the heart exists independently from the circumference, as is similar to a normal heart.
Adhesion level 1: A heart is observed to adhere to the circumferential tissue at one site by a thin film, but the adhesion site can be simply freed to release the heart.
Adhesion level 2: A heart is observed to adhere to the circumferential tissue at a few sites, but the adhesion sites can be freed by a traction force to release the heart.
Adhesion level 3: A heart is firmly adhered, but is distinguishable from, to the circumferential tissue at several sites, and it is hard to release the heart without a strong traction force.
Adhesion level 4: Excessive cell growth and fibrosis occur around a heart, and the heart is observed to adhere to the circumferential tissue. The heart is so firmly adhered to the circumferential tissue that the heart is difficult to release even by a peeling traction force.

[6] = 3rd day before to 14th day after model preparation, eight cases

Sequence of human leukocyte elastase (P08246 30-267): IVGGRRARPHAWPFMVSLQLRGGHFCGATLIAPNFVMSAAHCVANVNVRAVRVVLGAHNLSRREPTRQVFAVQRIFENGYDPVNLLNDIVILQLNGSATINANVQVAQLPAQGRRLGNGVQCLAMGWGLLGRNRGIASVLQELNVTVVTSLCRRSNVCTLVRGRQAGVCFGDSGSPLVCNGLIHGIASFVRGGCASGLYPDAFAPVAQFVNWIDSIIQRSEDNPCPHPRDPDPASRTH

Boc-Val-Pro-Val^P(OPh)2
inhibitor potency with human leukocyte elastase [1]: relatively potent inhibitors

Meo-Suc-Ala-Ala-Pro-Val^P(OPh)2
inhibitor potency with human leukocyte elastase [1]: relatively potent inhibitors

CC(C)C(NC(=O)CCC(=O)O)C(=O)N1CCCC1C(=O)NC(Cc1ccccc1)P(=O)(Oc1ccccc1)Oc1ccccc1 [Suc-Val-Pro-L-Phe^P(OPh)2]
half-life in human blood plasma [2]: about 20 hours
suppression of chymase activity in the blood vessel tissue [3]: suppress significantly

Suc-Val-Pro-Phe^P(OPh)2
half-life in human blood plasma [2]: about 20 hours
inhibitor potency for chymotrypsin and chymotrypsin-like enzymes [4]: relatively potent inhibitor
cases ranked as adhesion level 0 [5, 6]: 75%
cases ranked as adhesion level 2 [5, 6]: 12.5%
cases ranked as adhesion level 4 [5, 6]: 12.5%
adhesion level versus placebo group ([5]; 14th day, Student-t test): fell down significantly in adhesion level
